Like-named read-outs stand apart in the source and are kept apart here.
How the values were obtained:
[1] = test system: human breast cancer cell line MCF-7; assay: Oncotest propidium iodide monolayer cell proliferation assay, MCF-7; assay type: cell-based
Description: (§1) The anticancer activity of compounds (8a-q) was evaluated using the Oncotest monolayer assay in the human prostate cancer cell line 22Rv1 and the human breast cancer cell line MCF-7, as an outsourced service. […] Antitumour activity was assessed after four days of treatment with the compounds using a propidium iodide based monolayer assay. Potency is expressed as absolute IC50 values, calculated by non-linear regression analysis following testing in triplicate. The seventeen inhibitors were tested at 10 concentrations in half-log increments up to 100 μM in triplicate.
(§2) A modified propidium iodide (PI) based monolayer assay was used to assess the anti-cancer activity of the compounds. Briefly, cells were harvested from exponential phase cultures, counted and plated in 96-well flat-bottom microtiter plates at a cell density of 8.000–12.000 cells/well. After a 24 h recovery period to allow the cells to resume exponential growth, 10 μl of culture medium (six control wells/plate) or culture medium with test compound were added. The compounds were applied in half-log increments at 10 concentrations in triplicate. After a total treatment period of 96 h, cells were washed with 200 μl PBS to remove dead cells and debris. Then, 200 μl of a solution containing 7 μg/mL propidium iodide (PI) was added. After an incubation period of 1–2 h at room temperature, fluorescence (FU) was measured using the EnSpire Multimode Plate Reader (excitation λ = 530 nm, emission λ = 620 nm) to quantify the amount of attached viable cells. IC50 values were calculated by 4-parameter non-linear curve fit using Oncotest Warehouse Software. For calculation of mean IC50 values the geometric mean was used.

[2] = test system: microtubules in MCF-7 cells; assay: Microtubule immunofluorescence assay (α-tubulin, confocal microscopy); assay type: cell-based, human; settings: 250 nM, 6 h; for effect on tubulin cytoskeleton: MCF-7, interphase cells for 8e and 8b, all cells for podophyllotoxin; for induced defects in dividing cells: MCF-7 dividing cells
Description: In order to investigate the microtubule-destabilising ability of these analogues, experiments were conducted to determine their effects on the subcellular organisation of microtubules in vitro [27]. […] The nuclei of control interphase cells were relatively monomorphic. […] Analogue treated cells in interphase featured shorter microtubule filaments and slightly more disordered microtubule networks than control cells.
Following cell seeding (42 h) the media was replaced with fresh complete media containing 250 nM of podophyllotoxin, compound 8e and 8b or 0.01% DMSO. The cells were treated for 6 h with drug or diluent control then subjected to downstream immunofluorescence analysis (see tubulin immunofluorescence protocol).
The media was aspirated and the cells were washed once in ice-cold PBS before being fixed in 100% methanol at −20 °C for 10 min. The cells were then washed thrice in PBS and stored overnight at 4 °C. The following day cells were incubated in 150 μL of blocking solution (2% FBS [v/v], 2% BSA [w/v] in PBS pH 7.4) for 30 min. Blocking was followed by 1 h incubation with 100 μl of mouse anti-α tubulin antibody diluted 1:2000 in blocking solution. Cells were then washed 3 × 5min in PBS before being incubated with Alexa488 labelled, anti-mouse secondary antibody (1:400) and Hoechst 33342 (1 μg/ml) for 30 min. The cells were washed a final 3 × 5 min in PBS before coverslips were dipped once into PBS, once into dH2O and mounted onto glass slides with 12 μL of mounting medium (Dako oil). Three independent experiments were carried out in duplicate.
Confocal fluorescence microscopy analysis was conducted on a Leica SP5 inverted confocal laser scanning microscope. The microscope was equipped with a 63x oil-immersion objective and the 405 and 488 nm lasers were used. Gain and offset settings were optimised for each fluorescent channel within an experiment. Images were recorded using the sequential scanning mode to prevent fluorescence channel crosstalk/bleed-through. Images were scanned at 100 Hz with a line average of three to reduce noise.

[3] = test system: microtubules in MCF-7 cells; assay: Microtubule repolymerisation assay, second variation (no pre-treatment); assay type: cell-based, human; settings: 30 min on ice, then rewarmed 37 °C 30 min in presence of 250 nM compound
Description: (§3) Cold depolymerisation of the tubulin cytoskeleton in vitro, including in MCF-7 cells, can be achieved by relatively short incubations at 4 °C [27], [28], [29]. To test the ability of the compounds to impair microtubule polymerisation, following depolymerisation, two variations of a tubulin re-polymerisation assay were performed. In the first, MCF-7 cells were pre-treated for 6 h with 250 nM of the compounds before being incubated on ice for 30 min then rewarmed to 37 °C for a further 30 min. In the second variation, cells were first incubated on ice then rewarmed to 37 °C in the presence of the compounds (250 nM, 30 min total treatment time). Samples of cells were fixed post-cold depolymerisation and post-warm repolymerisation. In both variations, immunofluorescence for α-tubulin was performed and cells were imaged by confocal microscopy (Fig. 6 and 7). In control and treated cells, incubation on ice for 30 min led to total loss of filamentous tubulin and the protein was diffusely scattered throughout the cytoplasm. […] Upon increasing the temperature to 37 °C for 30 min there was clear repolymerisation of the microtubule network.
Following cell seeding (42 h), the plates were placed on ice for 30 min to cold-depolymerise the tubulin cytoskeleton. Control cold-depolymerised coverslips were then immediately prepared for tubulin immunofluorescence and the remaining coverslips were rewarmed and treated with 250 nM of podophyllotoxin, compound 8e, 8b or 0.01% DMSO for 30 min (37 °C, 5% CO2). Together with the controls these were then subjected to tubulin immunofluorescence.
The media was aspirated and the cells were washed once in ice-cold PBS before being fixed in 100% methanol at −20 °C for 10 min. The cells were then washed thrice in PBS and stored overnight at 4 °C. […]
(§4) Confocal fluorescence microscopy analysis was conducted on a Leica SP5 inverted confocal laser scanning microscope. […] Images were recorded using the sequential scanning mode to prevent fluorescence channel crosstalk/bleed-through. […]

[4] = test system: microtubules in MCF-7 cells; assay: Microtubule repolymerisation assay, first variation (6 h pre-treatment); assay type: cell-based, human; settings: 250 nM 6 h pre-treatment, 30 min on ice, rewarmed 37 °C 30 min
Description: as §3
Following cell seeding (42 h) the media was replaced with drug (or diluent control) containing complete media and cells were treated for 6 h with 250 nM of podophyllotoxin, compound 8e, 8b or 0.01% DMSO. The plates were then placed on ice and cells were incubated at 4 °C for 30 min to depolymerise the tubulin cytoskeleton, [28], [30]. One set of cover slips for each treatment condition was prepared for tubulin immunofluorescence (see protocol below) and the remaining sets of cover slips were returned to the incubator (37 °C, 5% CO2) for 30 min to allow re-polymerisation of microtubules. Tubulin immunofluorescence was performed after the cells had been rewarmed for 30 min (see below). […]
as §4

[5] = test system: human prostate cancer cell line 22Rv1; assay: Oncotest propidium iodide monolayer cell proliferation assay, 22Rv1; assay type: cell-based; settings: mean absolute IC50, 96 h treatment, propidium iodide endpoint, triplicate
Description: as §1, §2

MCF-7 and 22Rv1 = assay: Oncotest monolayer assay, results stated over both cell lines; assay type: cell-based, human; settings: cell viability, ten concentrations up to 100 μM, Fig. 3
Description: as §1, §2

[6] = design: method as in PMID 3290912; settings: cis isomer versus podophyllotoxin; cited from earlier work
[7] = Homo sapiens, MCF7, 96 h, mean absolute IC50, 96 h treatment, propidium iodide endpoint, triplicate, read-out: MCF-7 IC50

Row | SMILES | IC50 [1, 7] [µM] | effect on tubulin cytoskeleton [2] | induced defects in dividing cells [2] | repolymerisation of tubulin following cold depolymerisation [3] | repolymerisation of tubulin following cold depolymerisation [4] | IC50 ([5]; Homo sapiens, 22Rv1, 96 h) [nM] | concentration-effect curve (MCF-7 and 22Rv1) | IC50 ([1]; mean absolute IC50, 96 h treatment, propidium iodide endpoint, triplicate, read-out: MCF-7 IC50) [µM] | IC50 [5] [nM] | IC50 ([1]; Homo sapiens, MCF7, 96 h, read-out: MCF-7 IC50 (μM)) [µM] | less active than podophyllotoxin [6] [fold]
1 | O=C1OC[C@]2(O)Nc3c(c4cccnc4c4ncccc34)[C@@H](c3ccccc3OC(F)(F)F)[C@H]12 (mixture of isomers) [Compound 8b, (9aS, 12aS, 13S) and (9aR, 12aR, 13R) 9a-hydroxy-13-(2-(trifluoromethoxy)phenyl)-9a,10,12a,13-tetrahydrofuro[3,4-b]pyrido[3,2-f][1,10]phenanthrolin-12(9H)-one] | 0.288 | more subtle changes in the tubulin filaments and their organisation | aberrations of spindle morphology and polarity, nuclear atypia (pleomorphism, pyknosis) and uncongressed/misaligned chromosomes | the microtubule cytoskeleton was able to reform with negligible defects | the microtubule cytoskeleton was still able to reform but mitotic defects and shorter filaments | 165 | sigmoidal concentration-effect curves with low bottom plateaus indicating total cell kill at higher test concentration | – | – | – | –
2 | O=C1OC[C@]2(O)Nc3c(c4cccnc4c4ncccc34)[C@@H](c3ccccc3C(F)(F)F)[C@@H]12 (mixture of isomers) [Compound 8e, (9aS, 12aR, 13R) and (9aR, 12aS, 13S) 9a-hydroxy-13-(2-(trifluoromethyl)phenyl)-9a,10,12a,13-tetrahydrofuro[3,4-b]pyrido[3,2-f][1,10]phenanthrolin-12(9H)-one] | 0.21 | more subtle changes in the tubulin filaments and their organisation | aberrations of spindle morphology and polarity, nuclear atypia (pleomorphism, pyknosis) and uncongressed/misaligned chromosomes | the microtubule cytoskeleton was able to reform with negligible defects | the microtubule cytoskeleton was still able to reform but mitotic defects and shorter filaments | 110 | sigmoidal concentration-effect curves with low bottom plateaus indicating total cell kill at higher test concentration | 0.209 | 107 | – | –
3 | COc1cc([C@@H]2c3cc4c(cc3[C@H](O)[C@H]3COC(=O)[C@H]23)OCO4)cc(OC)c1OC [Podophyllotoxin] | – | dramatic disruption of the tubulin cytoskeleton | – | significantly impaired the repolymerisation of tubulin following cold depolymerisation | significantly impaired the repolymerisation of tubulin following cold depolymerisation | – | – | – | – | 0.23 | –
4 | COc1cc([C@@H]2c3cc4c(cc3[C@H](O)[C@H]3COC(=O)[C@@H]23)OCO4)cc(OC)c1OC [picropodophyllin] | – | – | – | – | – | – | – | – | – | – | 100

From publication PMC4762250, “Novel cis-selective and non-epimerisable C3 hydroxy azapodophyllotoxins targeting microtubules in cancer cells” (European Journal of Medicinal Chemistry, 2016)
